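Test compounds were applied to cells in 96-well plates for 48 hours at 5 doses. At the TGI there is no net growth.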
Experiments:
Test in all cases: NCI-60 cell line screen, 48 h
786-0 renal = test system: 786-0 renal
A498 renal = test system: A498 renal
A549 NSCLC = test system: A549 NSCLC
ACHN renal = test system: ACHN renal
CAKI-1 renal = test system: CAKI-1 renal
CCRF-CEM leukemia = test system: CCRF-CEM leukemia
COLO 205 colon = test system: COLO 205 colon
DLD-1 colon = test system: DLD-1 colon
DMS 114 small cell lung = test system: DMS 114 small cell lung
DMS 273 small cell lung = test system: DMS 273 small cell lung
EKVX NSCLC = test system: EKVX NSCLC
HCC-2998 colon = test system: HCC-2998 colon
HCT-116 colon = test system: HCT-116 colon
HCT-15 colon = test system: HCT-15 colon
HL-60(TB) leukemia = test system: HL-60(TB) leukemia
HOP-18 NSCLC = test system: HOP-18 NSCLC
HOP-62 NSCLC = test system: HOP-62 NSCLC
HOP-92 NSCLC = test system: HOP-92 NSCLC
HT29 colon = test system: HT29 colon
IGROV1 ovarian = test system: IGROV1 ovarian
K-562 leukemia = test system: K-562 leukemia
KM12 colon = test system: KM12 colon
KM20L2 colon = test system: KM20L2 colon
LXFL 529 NSCLC = test system: LXFL 529 NSCLC
M14 melanoma = test system: M14 melanoma
M19-MEL melanoma = test system: M19-MEL melanoma
MALME-3M melanoma = test system: MALME-3M melanoma
MOLT-4 leukemia = test system: MOLT-4 leukemia
NCI-H226 lung = test system: NCI-H226 lung
NCI-H23 lung = test system: NCI-H23 lung
NCI-H460 lung = test system: NCI-H460 lung
NCI-H522 lung = test system: NCI-H522 lung
OVCAR-4 ovarian = test system: OVCAR-4 ovarian
OVCAR-5 ovarian = test system: OVCAR-5 ovarian
OVCAR-8 ovarian = test system: OVCAR-8 ovarian
RPMI-8226 leukemia = test system: RPMI-8226 leukemia
RXF 393 renal = test system: RXF 393 renal
SF-268 CNS = test system: SF-268 CNS
SF-295 CNS = test system: SF-295 CNS
SF-539 CNS = test system: SF-539 CNS
SK-MEL-2 melanoma = test system: SK-MEL-2 melanoma
SK-MEL-28 melanoma = test system: SK-MEL-28 melanoma
SK-MEL-5 melanoma = test system: SK-MEL-5 melanoma
SK-OV-3 ovarian = test system: SK-OV-3 ovarian
SN12C renal = test system: SN12C renal
SNB-19 CNS = test system: SNB-19 CNS
SNB-75 CNS = test system: SNB-75 CNS
SNB-78 CNS = test system: SNB-78 CNS
SR leukemia = test system: SR leukemia
SW-620 colon = test system: SW-620 colon
TK-10 renal = test system: TK-10 renal
U251 CNS = test system: U251 CNS
UACC-257 melanoma = test system: UACC-257 melanoma
UACC-62 melanoma = test system: UACC-62 melanoma
UO-31 renal = test system: UO-31 renal
XF 498 CNS = test system: XF 498 CNS
LOX IMVI melanoma = test system: LOX IMVI melanoma
OVCAR-3 ovarian = test system: OVCAR-3 ovarian

COC(=O)C1=C(C)C(=O)[C@H]2C(C(=O)OC)CCCC[C@@H]12 (some centres not stated)
TGI (786-0 renal): > 100 µM | TGI (A498 renal): > 100 µM | TGI (A549 NSCLC): > 100 µM | TGI (ACHN renal): > 100 µM | TGI (CAKI-1 renal): > 100 µM | TGI (CCRF-CEM leukemia): > 100 µM | TGI (COLO 205 colon): > 100 µM | TGI (DLD-1 colon): > 100 µM | TGI (DMS 114 small cell lung): 99 µM | TGI (DMS 273 small cell lung): > 100 µM | TGI (EKVX NSCLC): > 100 µM | TGI (HCC-2998 colon): > 100 µM | TGI (HCT-116 colon): > 100 µM | TGI (HCT-15 colon): > 100 µM | TGI (HL-60(TB) leukemia): > 100 µM | TGI (HOP-18 NSCLC): > 100 µM | TGI (HOP-62 NSCLC): > 100 µM | TGI (HOP-92 NSCLC): > 100 µM | TGI (HT29 colon): > 100 µM | TGI (IGROV1 ovarian): > 100 µM | TGI (K-562 leukemia): > 100 µM | TGI (KM12 colon): > 100 µM | TGI (KM20L2 colon): > 100 µM | TGI (LXFL 529 NSCLC): > 100 µM | TGI (M14 melanoma): > 100 µM | TGI (M19-MEL melanoma): > 100 µM | TGI (MALME-3M melanoma): > 100 µM | TGI (MOLT-4 leukemia): > 100 µM | TGI (NCI-H226 lung): > 100 µM | TGI (NCI-H23 lung): > 100 µM | TGI (NCI-H460 lung): > 100 µM | TGI (NCI-H522 lung): > 100 µM | TGI (OVCAR-4 ovarian): > 100 µM | TGI (OVCAR-5 ovarian): > 100 µM | TGI (OVCAR-8 ovarian): > 100 µM | TGI (RPMI-8226 leukemia): > 100 µM | TGI (RXF 393 renal): > 100 µM | TGI (SF-268 CNS): > 100 µM | TGI (SF-295 CNS): > 100 µM | TGI (SF-539 CNS): > 100 µM | TGI (SK-MEL-2 melanoma): > 100 µM | TGI (SK-MEL-28 melanoma): > 100 µM | TGI (SK-MEL-5 melanoma): > 100 µM | TGI (SK-OV-3 ovarian): > 100 µM | TGI (SN12C renal): > 100 µM | TGI (SNB-19 CNS): > 100 µM | TGI (SNB-75 CNS): > 100 µM | TGI (SNB-78 CNS): > 100 µM | TGI (SR leukemia): > 100 µM | TGI (SW-620 colon): > 100 µM | TGI (TK-10 renal): > 100 µM | TGI (U251 CNS): > 100 µM | TGI (UACC-257 melanoma): > 100 µM | TGI (UACC-62 melanoma): > 100 µM | TGI (UO-31 renal): > 100 µM | TGI (XF 498 CNS): > 100 µM

C[Si](C)(c1ccccc1)C1CC(=O)CC(=O)C1
TGI (786-0 renal): 49.9 µM | TGI (A549 NSCLC): > 100 µM | TGI (ACHN renal): > 100 µM | TGI (CAKI-1 renal): > 100 µM | TGI (CCRF-CEM leukemia): > 100 µM | TGI (COLO 205 colon): > 100 µM | TGI (DLD-1 colon): > 100 µM | TGI (DMS 114 small cell lung): > 100 µM | TGI (DMS 273 small cell lung): > 100 µM | TGI (EKVX NSCLC): > 100 µM | TGI (HCC-2998 colon): > 100 µM | TGI (HCT-116 colon): > 100 µM | TGI (HCT-15 colon): > 100 µM | TGI (HL-60(TB) leukemia): 43.3 µM | TGI (HOP-18 NSCLC): > 100 µM | TGI (HOP-62 NSCLC): > 100 µM | TGI (HT29 colon): > 100 µM | TGI (IGROV1 ovarian): 48.3 µM | TGI (K-562 leukemia): > 100 µM | TGI (KM12 colon): > 100 µM | TGI (KM20L2 colon): > 100 µM | TGI (LOX IMVI melanoma): 42.5 µM | TGI (LXFL 529 NSCLC): > 100 µM | TGI (M14 melanoma): > 100 µM | TGI (M19-MEL melanoma): > 100 µM | TGI (MALME-3M melanoma): > 100 µM | TGI (MOLT-4 leukemia): > 100 µM | TGI (NCI-H226 lung): > 100 µM | TGI (NCI-H23 lung): > 100 µM | TGI (NCI-H460 lung): > 100 µM | TGI (NCI-H522 lung): 60.8 µM | TGI (OVCAR-3 ovarian): > 100 µM | TGI (OVCAR-4 ovarian): > 100 µM | TGI (OVCAR-5 ovarian): > 100 µM | TGI (OVCAR-8 ovarian): > 100 µM | TGI (RPMI-8226 leukemia): > 100 µM | TGI (RXF 393 renal): > 100 µM | TGI (SF-268 CNS): > 100 µM | TGI (SF-295 CNS): > 100 µM | TGI (SF-539 CNS): 34.4 µM | TGI (SK-MEL-2 melanoma): > 100 µM | TGI (SK-MEL-28 melanoma): > 100 µM | TGI (SK-MEL-5 melanoma): > 100 µM | TGI (SK-OV-3 ovarian): > 100 µM | TGI (SN12C renal): > 100 µM | TGI (SNB-19 CNS): > 100 µM | TGI (SNB-75 CNS): > 100 µM | TGI (SNB-78 CNS): > 100 µM | TGI (SR leukemia): > 100 µM | TGI (SW-620 colon): > 100 µM | TGI (TK-10 renal): > 100 µM | TGI (U251 CNS): > 100 µM | TGI (UACC-257 melanoma): > 100 µM | TGI (UACC-62 melanoma): > 100 µM | TGI (UO-31 renal): 37.6 µM | TGI (XF 498 CNS): > 100 µM
